Where “and” joins values, the source holds several entries; their conditions need not be identical. Equal entries are not always repeated.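 Method: 48-hour compound exposure of cells in 96-well plates, five concentrations, linear interpolation of endpoints. GI50 marks 50% less growth. TGI denotes the concentration required for complete inhibition of growth.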 Where a SMILES comes first, the peptide text is derived from it. [ ]: non-standard residue; d: D form. The star is where a group is joined. Phe(4-NO2) = N[CH](Cc1ccc([N+](=O)[O-])cc1)C(=O)O; Boc = CC(C)(C)OC(=O)*; OBn = c1ccc(CO*)cc1
How the values were obtained:
Assay in all cases: NCI anticancer screen, dose series, 48 h
[1] = tested on: RXF 393 renal
[2] = tested on: OVCAR-3 ovarian
[3] = tested on: NCI-H226 lung
[4] = tested on: SN12C renal
[5] = tested on: HCT-116 colon
[6] = tested on: RPMI-8226 leukemia
[7] = tested on: SR leukemia
[8] = tested on: HT29 colon
[9] = tested on: OVCAR-4 ovarian
[10] = tested on: IGROV1 ovarian

| Compound | TGI [1] | TGI [2] | TGI [3] | TGI [4] | TGI [5] | TGI [6] | TGI [7] | TGI [8] | TGI [9] | TGI [10] | GI50 [10] | GI50 [2] | GI50 [4] | GI50 [5] | GI50 [6] | GI50 [7] | GI50 [8] |
| --- | --- | --- | --- | --- | --- | --- | --- | --- | --- | --- | --- | --- | --- | --- | --- | --- | --- |
| CSc1c(C(=O)Nc2ccccc2)c(N)nn1-c1ccccc1 | > 100 µM | > 100 µM | > 100 µM | > 100 µM | > 100 µM | > 100 µM | > 100 µM | > 100 µM | > 100 µM | – | – | – | – | – | – | – | – |
| N=C(N)SCCON1C(=O)c2ccccc2C1=O | > 100 µM | > 100 µM | > 100 µM | > 100 µM | > 100 µM | > 100 µM | > 100 µM | > 100 µM | > 100 µM | > 100 µM | – | – | – | – | – | – | – |
| O=C(c1ccc(Cl)cc1)c1ccc(OCC(=O)N2CCN(c3ccccc3)CC2)cc1 | > 100 µM | > 100 µM | > 100 µM | > 100 µM | > 100 µM | > 100 µM | > 100 µM | > 100 µM | > 100 µM | > 100 µM | – | – | – | – | – | – | – |
| CC1=NOC2(C1)/C(=N/O)CCC/C2=N\O (stereo not drawn) | > 100 µM | > 100 µM | > 100 µM | > 100 µM | > 100 µM | > 100 µM | > 100 µM | > 100 µM | > 100 µM | > 100 µM | – | – | – | – | – | – | – |
| CCOC(=O)/C(=C\NCC(O)c1ccccc1)c1nc2ccccc2[nH]1 (stereo not drawn) | > 100 µM | > 100 µM | – | > 100 µM | 86.3 µM | 29.4 µM | 42.7 µM | 56.7 µM | 75.5 µM | 57.4 µM | – | – | – | – | – | – | – |
| CC1(C)OC2OC(COC(=O)C=[N+]=[N-])C3OC(C)(C)OC3C2O1 (stereo not drawn) | > 100 µM | > 100 µM | > 100 µM | > 100 µM | > 100 µM | > 100 µM | > 100 µM | > 100 µM | > 100 µM | > 100 µM | – | – | – | – | – | – | – |
| C=CC[C@H]1[C@@H](O[Si](C)(C)C(C)(C)C)[C@H](n2ccc(=O)[nH]c2=O)O[C@@H]1CO[Si](C)(C)C(C)(C)C | 3.63 µM | 3.12 µM | 18.6 µM | 3.32 µM | 3.11 µM | 6.03 µM | 5.95 µM | 2.96 µM | 5.97 µM | 6.05 µM | – | – | – | – | – | – | – |
| Cn1c(=O)c2c(nc(NCCCCl)n2CC(=O)O)n(C)c1=O | > 100 µM | > 100 µM | > 100 µM | > 100 µM | > 100 µM | > 100 µM | > 100 µM | > 100 µM | > 100 µM | > 100 µM | – | – | – | – | – | – | – |
| COc1cc2c(cc1C[N+](C)(C)CSc1ccccc1)-c1ccccc1CC2 | 23.1 µM | 13 µM | 23.6 µM | 19.2 µM | 13.1 µM | 17.2 µM | 7.55 µM | 13.1 µM | 18.9 µM | 12.5 µM | – | – | – | – | – | – | – |
| c1ccc(CNc2c3c(nc4ccccc24)CCC3)cc1 | 30.4 µM | 30.8 µM | 35.9 µM | 34.9 µM | 24.9 µM | 29.9 µM | 38.9 µM | 50.1 µM | 58.7 µM | 42.4 µM | – | – | – | – | – | – | – |
| O=C(Nc1ccccc1)O/N=C(/CBr)c1ccccc1 | 48 µM | 37.9 µM | 60.8 µM | 25 µM | 20 µM | 51.3 µM | 44.2 µM | > 100 µM | 33.8 µM | 36.9 µM | – | – | – | – | – | – | – |
| OC(C1CCC=NN1C(O)(C(F)(F)F)C(F)(F)F)(C(F)(F)F)C(F)(F)F (stereo not drawn) | > 10 µM | > 10 µM | > 10 µM | > 10 µM | > 10 µM | > 10 µM | > 10 µM | > 10 µM | > 10 µM | > 10 µM | – | – | – | – | – | – | – |
| COc1cc(-c2nc3cc(F)ccc3s2)ccc1O | > 100 µM | 79.1 µM | > 100 µM | > 100 µM | > 100 µM | > 100 µM | 75.7 µM | > 100 µM | > 100 µM | > 100 µM | – | – | – | – | – | – | – |
| CCOC(C[Se]CC(OCC)OCC)OCC | 85.8 µM | > 100 µM | 46.4 µM | – | > 100 µM | > 100 µM | > 100 µM | > 100 µM | > 100 µM | 93.2 µM | – | – | – | – | – | – | – |
| COC(=O)CCC(NC(=O)OC(C)(C)C)C(=O)NC(Cc1ccc([N+](=O)[O-])cc1)C(=O)NCC(=O)OCc1ccccc1 (stereo not drawn) (Boc-Glu(OMe)-[Phe(4-NO2)]-Gly-OBn; configuration not given here) | > 72.8 µM | > 100 µM | > 100 µM | > 100 µM | > 100 µM | > 100 µM | > 100 µM | > 100 µM | > 100 µM | > 100 µM | – | – | – | – | – | – | – |
| CC(C)(C)OC(=O)n1cc(C2CNC(=O)C23CCC(=O)N3Cc2ccccc2)c2ccccc21 (stereo not drawn) | 44.8 µM | 46.8 µM | 41.4 µM | 32.4 µM | > 100 µM | 40.8 µM | > 100 µM | 37.3 µM | 36.2 µM | 33.6 µM | – | – | – | – | – | – | – |
| COC1=CC(=O)c2ccccc2C1(CCC=C(C)C)C1=NC(C)(C)CO1 (stereo not drawn) | > 100 µM | > 100 µM | > 100 µM | > 100 µM | > 100 µM | > 100 µM | > 100 µM | > 100 µM | > 100 µM | > 100 µM | – | – | – | – | – | – | – |
| CCCCOC(=O)C(=O)C(CCC(=O)c1ccc(C)cc1)C(=O)C=C(C)C (stereo not drawn) | > 100 µM | > 100 µM | > 100 µM | > 100 µM | > 100 µM | > 100 µM | > 100 µM | > 100 µM | > 100 µM | > 100 µM | – | – | – | – | – | – | – |
| CC(C)C[C@H](NC(=O)[C@H](Cc1cccc2ccccc12)NC(=O)N1CCOCC1)B(O)O | 0.00195 µM | 0.00171 µM | 0.00049 µM | 0.0115 µM and < 0.0266 µM | 0.00182 µM | 0.00618 µM | 0.013 µM | 0.00448 µM | > 100 µM | 0.0485 µM | 0.00408 µM | 0.000519 µM | 0.0029 µM | 0.000452 µM | 0.000359 µM | 0.00276 µM | 0.00131 µM |
| COc1ccc(N2C=Nn3c(nc4sc(C)c(C)c4c3=O)C2)cc1 | > 100 µM | – | > 100 µM | > 100 µM | > 100 µM | > 100 µM | > 100 µM | > 100 µM | > 100 µM | > 100 µM | – | – | – | – | – | – | – |
| NCCC(N)C(=O)O (stereo not drawn) | > 100 µM | > 100 µM | > 100 µM | > 100 µM | > 100 µM | > 100 µM | > 100 µM | > 100 µM | > 100 µM | > 100 µM | – | – | – | – | – | – | – |
